Test results: ChEMBL document CHEMBL3885861, “Open TG-GATES”

Organism: Rattus norvegicus
Test: Open TG-GATES - Regimen: Single
Format: toxicity, organism-based, Sprague-Dawley
Parameters: regimen Single, gender Male, age 6 weeks
Details: in vivo, po, 0 mg/kg, route gavage, dose level Control; for APTT / Bas / Eos / Fbg / Hb / Ht / Lym / MCH / MCHC / MCV / Mono / Neu / PT / Plat / RBC / Ret / WBC: tissue Blood; for LIVER: tissue Liver; for A/G / ALP / ALT / AST / BUN / CRE / Ca / Cl / DBIL / GLC / IP / K / LDH / Na / PL / RALB / TBIL / TC / TG / TP / gamma-GTP: tissue Plasma

O=[N+]([O-])c1ccc(O)c([N+](=O)[O-])c1 [2,4-DINITROPHENOL]
TERMINAL_BW (3 h): 200.9 g | APTT (3 h): 15.9 s | Bas (3 h): 0% | Eos (3 h): 0.8% | Fbg (3 h): 241.6 mg/dL | Hb (3 h): 13.2 g/dL | Ht (3 h): 39.5% | Lym (3 h): 74% | MCH (3 h): 21.6 pg | MCHC (3 h): 33.5% | MCV (3 h): 64.4 fL | Mono (3 h): 8.4% | Neu (3 h): 16.8% | PT (3 h): 11.8 s | Plat (3 h): 109.2 x10_4/uL | RBC (3 h): 613.4 x10_4/ul | Ret (3 h): 9.5% | WBC (3 h): 98.2 x10_2/uL | LIVER (3 h): 9.3 g | A/G (3 h): 2.4 | ALP (3 h): 1373.4 IU/L | ALT (3 h): 40.8 IU/L | AST (3 h): 69.4 IU/L | BUN (3 h): 11 mg/dL | CRE (3 h): 0.3 mg/dL | Ca (3 h): 11.1 mg/dL | Cl (3 h): 103.6 meq/L | DBIL (3 h): 0.01 mg/dL | GLC (3 h): 175.6 mg/dL | IP (3 h): 9.4 mg/dL | K (3 h): 4.4 meq/L | LDH (3 h): 117.8 IU/L | Na (3 h): 138.6 meq/L | PL (3 h): 150.4 mg/dL | RALB (3 h): 3.7 g/dL | TBIL (3 h): 0.044 mg/dL | TC (3 h): 87.2 mg/dL | TG (3 h): 52.4 mg/dL | TP (3 h): 5.3 g/dL | gamma-GTP (3 h): 0 IU/L | TERMINAL_BW (6 h): 197.1 g | APTT (6 h): 16.4 s | Bas (6 h): 0% | Eos (6 h): 0.8% | Fbg (6 h): 232 mg/dL | Hb (6 h): 13.4 g/dL | Ht (6 h): 39.8% | Lym (6 h): 77.2% | MCH (6 h): 21.5 pg | MCHC (6 h): 33.6% | MCV (6 h): 63.9 fL | Mono (6 h): 9.6% | Neu (6 h): 12.4% | PT (6 h): 12.2 s | Plat (6 h): 127 x10_4/uL | RBC (6 h): 623.4 x10_4/ul | Ret (6 h): 8.9% | WBC (6 h): 127.4 x10_2/uL | LIVER (6 h): 8.9 g | A/G (6 h): 2.5 | ALP (6 h): 1236 IU/L | ALT (6 h): 36.4 IU/L | AST (6 h): 63.4 IU/L | BUN (6 h): 10.4 mg/dL | CRE (6 h): 0.4 mg/dL | Ca (6 h): 10.8 mg/dL | Cl (6 h): 104.8 meq/L | DBIL (6 h): 0.01 mg/dL | GLC (6 h): 191.6 mg/dL | IP (6 h): 9.3 mg/dL | K (6 h): 4.4 meq/L | LDH (6 h): 96.8 IU/L | Na (6 h): 138.8 meq/L | PL (6 h): 135.4 mg/dL | RALB (6 h): 3.9 g/dL | TBIL (6 h): 0.056 mg/dL | TC (6 h): 79.8 mg/dL | TG (6 h): 52.4 mg/dL | TP (6 h): 5.5 g/dL | gamma-GTP (6 h): 0 IU/L | TERMINAL_BW (9 h): 203.5 g | APTT (9 h): 15.9 s | Bas (9 h): 0% | Eos (9 h): 1% | Fbg (9 h): 234.6 mg/dL | Hb (9 h): 13 g/dL | Ht (9 h): 38.7% | Lym (9 h): 76.2% | MCH (9 h): 22 pg | MCHC (9 h): 33.7% | MCV (9 h): 65.1 fL | Mono (9 h): 8.8% | Neu (9 h): 14.6% | PT (9 h): 12.2 s | Plat (9 h): 117.6 x10_4/uL | RBC (9 h): 595.4 x10_4/ul | Ret (9 h): 9.4% | WBC (9 h): 108 x10_2/uL | LIVER (9 h): 8.7 g | A/G (9 h): 2.5 | ALP (9 h): 1123.8 IU/L | ALT (9 h): 32.8 IU/L | AST (9 h): 63.8 IU/L | BUN (9 h): 11.6 mg/dL | CRE (9 h): 0.3 mg/dL | Ca (9 h): 10.9 mg/dL | Cl (9 h): 104.2 meq/L | DBIL (9 h): 0.01 mg/dL | GLC (9 h): 195.2 mg/dL | IP (9 h): 10.4 mg/dL | K (9 h): 4.6 meq/L | LDH (9 h): 109.6 IU/L | Na (9 h): 139.4 meq/L | PL (9 h): 140 mg/dL | RALB (9 h): 3.8 g/dL | TBIL (9 h): 0.044 mg/dL | TC (9 h): 84.6 mg/dL | TG (9 h): 47.8 mg/dL | TP (9 h): 5.4 g/dL | gamma-GTP (9 h): 0.2 IU/L | TERMINAL_BW (24 h): 219.1 g | APTT (24 h): 16.3 s | Bas (24 h): 0% | Eos (24 h): 1.2% | Fbg (24 h): 228.6 mg/dL | Hb (24 h): 12.7 g/dL | Ht (24 h): 37.5% | Lym (24 h): 72% | MCH (24 h): 21.1 pg | MCHC (24 h): 33.8% | MCV (24 h): 62.5 fL | Mono (24 h): 9.4% | Neu (24 h): 17.8% | PT (24 h): 11.6 s | Plat (24 h): 138.4 x10_4/uL | RBC (24 h): 600 x10_4/ul | Ret (24 h): 8.1% | WBC (24 h): 106.6 x10_2/uL | LIVER (24 h): 10.9 g | A/G (24 h): 2.4 | ALP (24 h): 1480.2 IU/L | ALT (24 h): 37.4 IU/L | AST (24 h): 62.4 IU/L | BUN (24 h): 17 mg/dL | CRE (24 h): 0.4 mg/dL | Ca (24 h): 11.4 mg/dL | Cl (24 h): 103.2 meq/L | DBIL (24 h): 0.012 mg/dL | GLC (24 h): 185.6 mg/dL | IP (24 h): 7.6 mg/dL | K (24 h): 4.6 meq/L | LDH (24 h): 84.2 IU/L | Na (24 h): 139 meq/L | PL (24 h): 160.4 mg/dL | RALB (24 h): 3.9 g/dL | TBIL (24 h): 0.034 mg/dL | TC (24 h): 84 mg/dL | TG (24 h): 120.4 mg/dL | TP (24 h): 5.5 g/dL | gamma-GTP (24 h): 0.2 IU/L
